For one test, the system named is XMRV. Kind of test: XMRV-replication in acutely infected CD4+ T lymphocytes from healthy individuals (ELISA of culture supernatants). The format is cell-based. Conditions: freshly isolated CD4+ T cells treated with 10, 100 and 1000 nM then infected with XMRV; 96 h post-infection; compared to untreated controls. On the procedure: First, the activity of 2-5A^N1B on XMRV-replication is tested in CD4^+ T lymphocytes purified from healthy individuals. To determine the effective dose of 2-5A^N1B during acute XMRV infection, freshly isolated CD4^+ T cells are treated with three concentrations of 2-5A^N1B (10, 100 and 1000 nM) and then infected with XMRV. XMRV-replication is assessed in culture supernatants by ELISA.

The next test concerns wild-type XMRV. Kind of test: XMRV replication in chronically infected CD4+ cells derived from XMRV-positive individuals (ELISA of supernatants). In kind it is cell-based. To be noted: purified CD4+ T lymphocytes from XMRV-positive adults; in vitro; compared to untreated cells. On the procedure: Secondly, the activity of 2-5A^N1B is tested on chronically infected cells derived from XMRV-positive individuals. XMRV-positive adults are recruited from the clinic. The antiviral response to 2-5A^N1B in vitro is assessed by ELISA in the supernatants of cultured CD4+ cells.
A general note: An ELISA detects its analyte on a solid surface through an enzyme-linked reagent.

As for “N^1-benzyl-3′-deoxyadenylyl-(2′-5′)-3′-deoxyadenylyl-(2′-5′)-3′-deoxyadenylyl-(2′-2″)—N^9-[(2″-hydroxy-ethoxy)-methyl]-adenine [2-5A^N1B]”, the XMRV-replication result in the test on XMRV was “significant decrease”. In addition, the “replication of wild-type XMRV” value in the test on wild-type XMRV is on record as “significantly inhibits”.
